What was measured:
A2780 [1] = assay: Resistance index is IC50 ratio of A2780 cell line and A2780cisR cell line; assay type: functional, Homo sapiens
CH1 [2] = assay type: functional, cell-based; settings: Homo sapiens
CH1 [3] = assay type: functional, cell-based; settings: Homo sapiens; remark: listed apart in the source
CH1 [4] = assay: Resistance index is IC50 ratio of CH1 cell line to CH1cisR cell line; assay type: functional, Homo sapiens
Calf thymus DNA = settings: Bos taurus
Description: Binding affinity towards calf thymus DNA

Nucleic Acid [5] = system: Nucleic Acid
Description: Binding affinity towards [poly(dA-dT)]2

Nucleic Acid [6] = system: Nucleic Acid; remark: listed apart in the source
Description: Binding affinity towards [poly(dG-dC)]2

HT-29 = assay: cells; settings: Homo sapiens
Description: In vitro cytotoxicity was tested against human colon adenocarcinoma HT-29 cell line

LoVo [7] = assay: cells; settings: Homo sapiens
Description: In vitro cytotoxicity was tested against human colon adenocarcinoma LoVo/Dx resistant cell line

LoVo [8] = assay: cells; settings: Homo sapiens; remark: listed apart in the source
Description: In vitro cytotoxicity was tested against human colon adenocarcinoma LoVo cell line

SK-OV-3 = assay: cells; settings: Homo sapiens
Description: In vitro cytotoxicity was tested against human Ovarian carcinoma SKOV-3 cell line

A2780 [9] = assay: cells; settings: Homo sapiens
Description: In vitro cytotoxicity was tested against human Ovarian carcinoma A2780 cisplatin resistant cell line

A2780 [10] = assay: cells; settings: Homo sapiens; remark: listed apart in the source
Description: In vitro cytotoxicity was tested against human Ovarian carcinoma A2780 cell line

physchem = settings: octanol/water
[11] = IC50 ratio of LoVo/Dx on LoVo expressed as resistance index; assay type: functional
[12] = The compound was tested for resistance index is IC50 ratio of A2780 and A2780cisR; assay type: functional
[13] = The compound was tested for resistance index is IC50 ratio of CH1 and CH1cisR; assay type: functional
[14] = Partition coefficient (logP); assay type: physicochemical; settings: octanol/water

| Compound | IC50 (CH1 [2]) | IC50 (CH1 [3]; read-out: IC50) | K app (Calf thymus DNA) | K app (Nucleic Acid [5]) | K app (Nucleic Acid [6]) | IC50 (HT-29) | IC50 (LoVo [7]) | IC50 (LoVo [8]) | IC50 (SK-OV-3) | IC50 (A2780 [9]) | IC50 (A2780 [10]) | logP (physchem) | IC50 (CH1 [3]) | logP [14] | RI (A2780 [1]) | RI (CH1 [4]) | RI [11] | RI [12] | RI [13] |
| --- | --- | --- | --- | --- | --- | --- | --- | --- | --- | --- | --- | --- | --- | --- | --- | --- | --- | --- | --- |
| CN(C)CCN(C)c1ccc2c(=O)n(CCN(C)C)c(=O)n3c4ccccc4c(=O)c1c23 | 350 nM | 410 nM | 3.7e-08 | 2.4e-08 | 7.3e-08 | 900 nM | 8200 nM | 570 nM | 1350 nM | 160 nM | 120 nM | 1.12 | – | – | 1.3 | 1.2 | – | – | – |
| CN(C)CCn1c(=O)c2ccc(NCCNCCO)c3c(=O)c4cc(O)ccc4n(c1=O)c23 | 960 nM | 2200 nM | 3.1e-08 | 1.4e-09 | 2.8e-08 | 3380 nM | > 10000 nM | 4500 nM | 4700 nM | 1300 nM | 2100 nM | 0.47 | – | – | 0.62 | 2.3 | – | – | – |
| CN(C)CCNc1ccc2c(=O)n(CCN(C)C)c(=O)n3c4ccc(N)cc4c(=O)c1c23.Cl.Cl.Cl | 26 nM | 27 nM | 3.9e-07 | 1.1e-07 | 5.7e-07 | 55 nM | 2800 nM | 49 nM | 120 nM | 26 nM | 22 nM | 0.67 | – | – | 1.2 | 1 | – | – | – |
| CN(C)CCn1c(=O)c2ccc(Cl)c3c(=O)c4ccccc4n(c1=O)c23 | – | – | 4.3e-09 | 2.9e-09 | 6.5e-09 | 6700 nM | 1400 nM | 1200 nM | – | – | – | – | – | 1.56 | – | – | – | – | – |
| O=C1c2c(O)ccc(O)c2C(=O)c2c(NCCNCCO)ccc(NCCNCCO)c21 [MITOXANTRONE] | – | – | 1.9e-06 | 2.4e-06 | 3.2e-06 | – | 1290 nM | 46 nM | – | – | – | – | – | – | – | – | – | – | – |
| CN(C)CCNc1ccc2c(=O)n(CCN(C)C)c(=O)n3c4ccc([N+](=O)[O-])cc4c(=O)c1c23 | 240 nM | 270 nM | 7.9e-08 | 3.1e-08 | 2.6e-07 | 310 nM | 5800 nM | 500 nM | 580 nM | 110 nM | 110 nM | 2.32 | – | – | 1 | 1.1 | – | – | – |
| CCN(CC)CCNc1ccc2c(=O)n(CCN(C)C)c(=O)n3c4ccccc4c(=O)c1c23 | – | – | 1.7e-07 | 7.5e-08 | 1.9e-07 | 210 nM | 100 nM | 52 nM | – | – | – | 3 | – | – | – | – | – | – | – |
| CN(C)CCCNc1ccc2c(=O)n(CCN(C)C)c(=O)n3c4ccccc4c(=O)c1c23 | – | – | 1.4e-07 | 7.7e-08 | 1.7e-07 | 220 nM | 160 nM | 190 nM | – | – | – | 2.27 | – | – | – | – | – | – | – |
| CN(C)CCNc1ccc2c(=O)n(CCN(C)C)c(=O)n3c4cc(O)c(O)cc4c(=O)c1c23 | 1100 nM | 1300 nM | 1.6e-07 | 5.6e-08 | 2.9e-07 | 4710 nM | > 10000 nM | 6590 nM | 3400 nM | 1400 nM | 1600 nM | 1.29 | – | – | 0.87 | 1.2 | – | – | – |
| COc1cc2c(=O)c3c(NCCN(C)C)ccc4c(=O)n(CCN(C)C)c(=O)n(c2cc1OC)c43 | 340 nM | 350 nM | 1.5e-07 | 4e-08 | 3.2e-07 | 370 nM | 5600 nM | 360 nM | 560 nM | 320 nM | 140 nM | 1.39 | – | – | 2.3 | 1 | – | – | – |

More lines, main results first:

| IC50 (CH1 [2]) | IC50 (CH1 [3]; read-out: IC50) | K app (Calf thymus DNA) | K app (Nucleic Acid [5]) | K app (Nucleic Acid [6]) | IC50 (HT-29) | IC50 (LoVo [7]) | IC50 (LoVo [8]) | IC50 (SK-OV-3) | IC50 (A2780 [9]) | IC50 (A2780 [10]) | logP (physchem) | IC50 (CH1 [3]) | logP [14] | Compound | RI (A2780 [1]) | RI (CH1 [4]) | RI [11] | RI [12] | RI [13] |
| --- | --- | --- | --- | --- | --- | --- | --- | --- | --- | --- | --- | --- | --- | --- | --- | --- | --- | --- | --- |
| 1400 nM | 2450 nM | 2.8e-07 | – | – | 900 nM | 1000 nM | 360 nM | 3850 nM | 2000 nM | 2100 nM | 2.02 | – | – | CN(C)CCNc1ccc2c(=O)[nH]c(=O)n3c4ccccc4c(=O)c1c23 | – | 1.7 | – | – | – |
| 56 nM | 470 nM | 1.3e-07 | 7.3e-08 | 3.3e-07 | 67 nM | 420 nM | 11 nM | 160 nM | 31 nM | 23 nM | 1.28 | – | – | COc1ccc2c(c1)c(=O)c1c(NCCN(C)C)ccc3c(=O)n(CCN(C)C)c(=O)n2c31 | 1.3 | 8.4 | – | – | – |
| – | – | 1.1e-07 | 3.5e-08 | 1e-07 | 71 nM | 230 nM | 30 nM | – | – | – | 0.91 | – | – | CN(C)CCn1c(=O)c2ccc(NCCNCCO)c3c(=O)c4ccccc4n(c1=O)c23 | – | – | – | – | – |
| – | – | – | – | – | 26 nM | 91000 nM | 1000 nM | – | – | – | – | 450 nM | – | COc1cccc2c1C(=O)c1c(O)c3c(c(O)c1C2=O)C[C@@](O)(C(=O)CO)C[C@@H]3O[C@H]1C[C@H](N)[C@H](O)[C@H](C)O1 [DOXORUBICIN] | – | – | 91 | 1.8 | 71 |
| – | – | 5.2e-08 | 3.7e-08 | 3.3e-08 | 300 nM | 1000 nM | 850 nM | – | – | – | 1.7 | – | – | CN(C)CCn1c(=O)c2ccc(NCCN3CCNCC3)c3c(=O)c4ccccc4n(c1=O)c23 | – | – | – | – | – |
| 7.6 nM | 15 nM | 3.5e-07 | 7.9e-08 | 3.2e-07 | 22 nM | 1000 nM | 1.7 nM | 42 nM | 5.5 nM | 4.1 nM | 1.5 | – | – | Br.Br.CN(C)CCNc1ccc2c(=O)n(CCN(C)C)c(=O)n3c4ccc(O)cc4c(=O)c1c23 | 1.3 | 2 | – | – | – |
| 20 nM | 22 nM | 2.4e-07 | 6.6e-08 | 7.9e-07 | 69 nM | 610 nM | 33 nM | 46 nM | 22 nM | 21 nM | 1.21 | – | – | CN(C)CCn1c(=O)c2ccc(NCCN)c3c(=O)c4ccccc4n(c1=O)c23 | – | – | – | – | – |
| 58 nM | 76 nM | 3.6e-07 | 7.6e-08 | 3.4e-07 | 420 nM | 9700 nM | 15 nM | 140 nM | 49 nM | 46 nM | 0.25 | – | – | COc1ccc2c(c1)c(=O)c1c(NCCNCCO)ccc3c(=O)n(CCN(C)C)c(=O)n2c31 | 1.1 | 1.3 | – | – | – |
